Key:
Type in all cases: functional
[1] = test system: OVCAR-5; experiment: Growth inhibition of human OVCAR5 cells assessed as cell growth at 10^-8 M by sulforhodamine B assay; settings: read-out: Activity
[2] = test system: T47D; experiment: Growth inhibition of human T47D cells assessed as cell growth at 10^-8 M by sulforhodamine B assay; settings: read-out: Activity
[3] = test system: HL-60(TB); experiment: Growth inhibition of human HL-60(TB) cells assessed as cell growth at 10^-8 M by sulforhodamine B assay; settings: read-out: Activity
[4] = test system: MCF7; experiment: Growth inhibition of human MCF7 cells by sulforhodamine B assay
[5] = test system: COLO 205; experiment: Growth inhibition of human COLO205 cells assessed as cell growth at 10^-4 M by sulforhodamine B assay; settings: read-out: Activity
[6] = test system: SN12C; experiment: Growth inhibition of human SN12C cells assessed as cell growth at 10^-7 M by sulforhodamine B assay; settings: read-out: Activity
[7] = test system: OVCAR-3; experiment: Growth inhibition of human OVCAR3 cells assessed as cell growth at 10^-7 M by sulforhodamine B assay; settings: read-out: Activity
[8] = test system: A549; experiment: Growth inhibition of human A549/ATCC cells assessed as cell growth at 10^-4 M by sulforhodamine B assay; settings: read-out: Activity
[9] = test system: SNB-75; experiment: Growth inhibition of human SNB75 cells assessed as cell growth at 10^-4 M by sulforhodamine B assay; settings: read-out: Activity
[10] = test system: RPMI-8226; experiment: Growth inhibition of human RPMI8226 cells assessed as cell growth at 10^-8 M by sulforhodamine B assay; settings: read-out: Activity
[11] = test system: SK-MEL-5; experiment: Growth inhibition of human SK-MEL-5 cells assessed as cell growth at 10^-7 M by sulforhodamine B assay; settings: read-out: Activity
[12] = test system: MDA-MB-435; experiment: Growth inhibition of human MDA-MB-435 cells assessed as cell growth at 10^-7 M by sulforhodamine B assay; settings: read-out: Activity
[13] = Growth inhibition of human NCI-ADR-RES cells assessed as cell growth at 10^-8 M by sulforhodamine B assay; settings: read-out: Activity
[14] = test system: SK-MEL-28; experiment: Growth inhibition of human SK-MEL-28 cells assessed as cell growth at 10^-6 M by sulforhodamine B assay; settings: read-out: Activity
[15] = test system: SNB-19; experiment: Growth inhibition of human SNB19 cells assessed as cell growth at 10^-4 M by sulforhodamine B assay; settings: read-out: Activity
[16] = test system: KM12; experiment: Growth inhibition of human KM12 cells assessed as cell growth at 10^-6 M by sulforhodamine B assay; settings: read-out: Activity
[17] = test system: SF-295; experiment: Growth inhibition of human SF295 cells assessed as cell growth at 10^-7 M by sulforhodamine B assay; settings: read-out: Activity
[18] = test system: MOLT-4; experiment: Growth inhibition of human MOLT4 cells assessed as cell growth at 10^-4 M by sulforhodamine B assay; settings: read-out: Activity
[19] = test system: IGROV-1; experiment: Growth inhibition of human IGROV1 cells assessed as cell growth at 10^-4 M by sulforhodamine B assay; settings: read-out: Activity
[20] = Growth inhibition of human NCI-ADR-RES cells by sulforhodamine B assay
[21] = test system: HL-60(TB); experiment: Growth inhibition of human HL-60(TB) cells by sulforhodamine B assay
[22] = test system: NCI-H322M; experiment: Growth inhibition of human NCI-H322M cells assessed as cell growth at 10^-6 M by sulforhodamine B assay; settings: read-out: Activity
[23] = test system: KM12; experiment: Growth inhibition of human KM12 cells assessed as cell growth at 10^-7 M by sulforhodamine B assay; settings: read-out: Activity
[24] = test system: ACHN; experiment: Growth inhibition of human ACHN cells assessed as cell growth at 10^-7 M by sulforhodamine B assay; settings: read-out: Activity
[25] = test system: HT-29; experiment: Growth inhibition of human HT-29 cells assessed as cell growth at 10^-4 M by sulforhodamine B assay; settings: read-out: Activity
[26] = test system: HT-29; experiment: Growth inhibition of human HT-29 cells assessed as cell growth at 10^-8 M by sulforhodamine B assay; settings: read-out: Activity
[27] = test system: SF-539; experiment: Growth inhibition of human SF539 cells assessed as cell growth at 10^-8 M by sulforhodamine B assay; settings: read-out: Activity
[28] = test system: DU-145; experiment: Growth inhibition of human DU145 cells assessed as cell growth at 10^-4 M by sulforhodamine B assay; settings: read-out: Activity
[29] = test system: SK-MEL-2; experiment: Growth inhibition of human SK-MEL-2 cells assessed as cell growth at 10^-8 M by sulforhodamine B assay; settings: read-out: Activity
[30] = test system: NCI-H460; experiment: Growth inhibition of human NCI-H460 cells assessed as cell growth at 10^-7 M by sulforhodamine B assay; settings: read-out: Activity
[31] = test system: Malme-3M; experiment: Growth inhibition of human MALME-3M cells assessed as cell growth at 10^-7 M by sulforhodamine B assay; settings: read-out: Activity
[32] = test system: NCI-H460; experiment: Growth inhibition of human NCI-H460 cells assessed as cell growth at 10^-8 M by sulforhodamine B assay; settings: read-out: Activity
[33] = test system: OVCAR-8; experiment: Growth inhibition of human OVCAR8 cells assessed as cell growth at 10^-7 M by sulforhodamine B assay; settings: read-out: Activity
[34] = test system: PC-3; experiment: Growth inhibition of human PC3 cells assessed as cell growth at 10^-8 M by sulforhodamine B assay; settings: read-out: Activity
[35] = test system: LOX IMVI; experiment: Growth inhibition of human LOXIMVI cells assessed as cell growth at 10^-4 M by sulforhodamine B assay; settings: read-out: Activity
[36] = read-out: LC50 (the source's name)
[37] = read-out: pLC50 (the source's name) (converted)

CC1(C)C[C@@H](O)[C@]2(C(=O)O)CC[C@]3(C)C(=CC[C@@H]4[C@@]5(C)C/C(=C\C=C\c6ccccc6)C(=O)C(C)(C)[C@@H]5CC[C@]43C)[C@@H]2C1
growth at 0.01 µM [1]: 103%
growth at 0.01 µM [2]: 101%
growth at 0.01 µM [3]: 101%
GI50 ([4]; read-out: GI50): 3.23 µM
CC50 [4, 36]: 56.9 µM
TGI ([4]; read-out: TGI): 12.3 µM
GI50 ([4]; read-out: pGI50 (converted)): 3.24 µM
CC50 [4, 37]: 57.5 µM
TGI ([4]; read-out: pTGI (converted)): 12.3 µM
growth at 100 µM [5]: -61%
growth at 0.1 µM [6]: 98%
growth at 0.1 µM [7]: 104%
growth at 100 µM [8]: -63%
growth at 100 µM [9]: -70%
growth at 0.01 µM [10]: 98%
growth at 0.1 µM [11]: 95%
growth at 0.1 µM [12]: 96%
growth at 0.01 µM [13]: 107%
growth at 1 µM [14]: 97%
growth at 100 µM [15]: -91%
growth at 1 µM [16]: 92%
growth at 0.1 µM [17]: 98%
growth at 100 µM [18]: -28%
growth at 100 µM [19]: -59%
GI50 ([20]; read-out: GI50): 3.29 µM
CC50 [20, 36]: 43.2 µM
TGI ([20]; read-out: TGI): 14.1 µM
GI50 ([20]; read-out: pGI50 (converted)): 3.31 µM
CC50 [20, 37]: 43.7 µM
TGI ([20]; read-out: pTGI (converted)): 14.1 µM
GI50 ([21]; read-out: GI50): 2.92 µM
CC50 [21, 36]: > 100 µM
TGI ([21]; read-out: TGI): 6.89 µM
GI50 ([21]; read-out: pGI50 (converted)): 2.88 µM
CC50 [21, 37]: > 100 µM
TGI ([21]; read-out: pTGI (converted)): 6.92 µM
growth at 1 µM [22]: 94%
growth at 0.1 µM [23]: 99%
growth at 0.1 µM [24]: 98%
growth at 100 µM [25]: -83%
growth at 0.01 µM [26]: 104%
growth at 0.01 µM [27]: 93%
growth at 100 µM [28]: -92%
growth at 0.01 µM [29]: 86%
growth at 0.1 µM [30]: 101%
growth at 0.1 µM [31]: 93%
growth at 0.01 µM [32]: 102%
growth at 0.1 µM [33]: 97%
growth at 0.01 µM [34]: 97%
growth at 100 µM [35]: -90%

— ChEMBL document CHEMBL2413072, “Synthesis and in vitro anticancer studies of novel C-2 arylidene congeners of lantadenes” (2013)
